Series [1] concerns CFA-induced mechanical hyperalgesia. Kind of series: Complete Freund's adjuvant inflammatory pain, von Frey filament test. The format is in vivo, rats. The protocol:
Complete Freund's adjuvant (CFA) contains Mycobacterium butyricum, inducing inflammation and an increase in paw thickness. 0.1 mL of CFA was injected in the right hind paw of Sprague Dawley male rats under isoflurane anaesthesia. Mechanical hyperalgesia may be measured 2-3 days after CFA treatment. Rats (n=6) are placed in elevated boxes with a mesh floor. Von Frey filaments (expressed in g) are applied perpendicularly to the hindpaws, starting with the lowest filament (1.4 g) then increased until hindpaw withdrawal is observed. After each measurement, rats receive the next dose of drug (every 20 min) until the maximum threshold (26 g) is observed. For the antagonist study, rats are pretreated with the benzodiazepine site antagonist (10 min) and then receive the next dose of drug (every 20 min) until the pre-CFA threshold was observed.
3PBC.HCl was dissolved in a mixture containing 10% ethanol, 50% propylene glycol, and 40% sterile water. BCCt was dissolved in propylene glycol and then heated in a water bath up to 70° C. Midazolam (Akorn, Inc.) was dissolved in 0.9% saline. Doses were expressed as the weight of the drug in milligrams per kilogram of body weight and drugs were administered intraperitoneally.
Starting 2 days after CFA treatment, mechanical hyperalgesia was measured on days 0, 4, and 8. On days 1-3 and 5-7 rats were pretreated with either 3PBC.HCl (5.6 mg/kg), β-carboline-3-carboxylate-t-butyl ester (BCCt) (3.2 mg/kg) or saline twice a day (a.m. injections (9:00-10:30) and p.m. injections (5:00-6:30)) in their home cages. Rats were treated with midazolam (5.6 mg/kg) immediately after pretreatment of 3PBC.HCl, BCCt, or saline. On days 0 and 4, rats only received p.m. injections due to the mechanical hyperalgesia test done in the a.m.
The anti-hyperalgesic effects of midazolam were quantified for each animal as percent maximal possible effect (MPE) for each drug dose by using the following formula: percent MPE=[(post-drug value for a behavioral response (g)−pre-drug value for a behavioral response)/(pre-CFA value-pre-drug value for a behavioral response)×100.

Series [2] has as its system electroshock-induced seizures. Kind of series: Mouse electroshock-induced seizure model. The format is in vivo. The note with it: mice. The protocol: This assay detects effects of compounds that produce generalized seizures and those that dampen seizure spread. Male, CD1 mice (Taconic Farms) were studied at weights of 21-32 g. Mice=10/dose) were used with Wahlquist Model H stimulator with 0.2 sec stimulation with corneal electrodes. […] Mice were euthanized immediately following the test. Tonic extension was used as the primary endpoint.
(§1) For the in vivo assays, minimal effective doses (MED) were calculated in mg/kg. MED was defined as the lowest dose administered that produced statistically significant protection compared to vehicle control in the anticonvulsant assays. The MED, or minimal toxic dose (MTD) for motor impairment, was the minimal dose required to produce statistically-significant impairment in motor performance. Doses tested are shown in the figures and tables and are generally dosed in ½ log increments. The protective index (PT) was calculated at the MTD/MED.

The test system of another series is PTZ-induced clonus. Kind of series: Pentylenetetrazole (PTZ, 35 mg/kg s.c.)-induced clonic convulsions. The format is in vivo. The conditions noted are these: rats. The protocol:
After the inverted screen test, the rats were dosed with pentylenetetrazole (PTZ)(35 mg/kg, s.c.) in a volume of 1 ml/kg and placed in an observation cage (40.6×20.3×15.2 cm) with a floor containing […] of wood chip bedding material. PTZ dose was determined to be ˜EC97 for producing clonic convulsions.

A further series concerns PTZ seizure threshold. Description: Pentylenetetrazole (PTZ, i.v.)-induced seizure threshold. The format is in vivo, rats. The procedure: Male […] Sprague-Dawley rats (Indianapolis, Ind.) were randomly assigned to treatment groups and dosed with vehicle (vehicle=1% carboxymethyl cellulose) with diazepam (0.1, 0.3, or 1 mg/kg) or test compound (3, 10, 30, or 60 mg/kg) 30 minutes prior to testing. Rats were placed in a restrainer and a winged infusion needle was inserted into the lateral tail vein. Intravenous infusion with 10 mg/ml PTZ at a rate of 0.5 ml/min was initiated until a clonic convulsion occurred, and the time to clonic convulsion was recorded in sec or a maximum of 4 min was recorded. Following infusion, rats are euthanized. The dose of PTZ required to elicit a clonic convulsion was calculated using the infusion rate, concentration of PTZ, time to clonic convulsion, and animal weight.

Series [3] has as its system seizures in amygdala kindled rats. Description: Basolateral amygdala kindling. The format is in vivo. The procedure:
Seizure kindling models evaluate effects of drugs on the sensitization of the nervous system to seizure induction. In this test, drugs were evaluated for their ability to impact seizure parameters in rats that were fully kindled by daily electrical stimulation of their amygdala. Valproic acid was used as a positive control. Experiments were conducted using the general procedures of Zwart et al. (J. Pharmacol. Exp. Ther., 2014, 351:124-133). A bipolar electrode for electrical stimulation and EEG recording was stereotaxically implanted into one hemisphere of the basolateral amygdala (AP −2.2, ML −4.8, DV −8.5 mm, relative to bregma) of male Wistar rats. After post-operative recovery, electrical kindling begins, where a subthreshold constant current (400 μA, 1 ms, monophasic square-wave pulses, 60 Hz for 1 sec) is given once a day Monday-Friday for about 4-6 weeks until a rat is fully kindled. A fully kindled rat has experienced 10 consecutive stage 5 seizures or 10 of its last 12 were stage 5 according to the Racine Scale.
Twelve fully kindled rats were assigned to this study, and eight rats were selected and randomized to initial compound treatment groups from baseline after discharge threshold (ADT), seizure severity score, and after discharge duration (ADD). […] On test day, rats were dosed 30 min prior to beginning stimulation. After the pre-treatment, rats were stimulated using an ascending staircase sequence beginning at 10 μA and increasing in log unit steps of 10, 16, 25, 40, 65, 100, 160, 250, and 400 μA. Animals were stimulated until they were assigned a Seizure Severity Score for a visually observably seizure or they reached the 400 μA threshold limit. ADD was determined following testing. ADT was the current that induced a seizure; measurements were scale-adjusted to capture the stimulation scale change required to observe a seizure from the previous baseline to the ADT scored on test day. […] The average scale adjusted ADT was approximately 0.63 μA in vehicle treated rats.
Racine score of behavioral response to stimulation: 0=no behavioral response; 1=immobility, staring and/or facial clonus; 2=head nodding, jaw clonus, and/or tongue protrusion; 3=unilateral forelimb clonus; 4=bilateral forelimb clonus and/or rearing; 5=bilateral forelimb clonus with rearing and loss of balance.
After-Discharge Duration (ADD) is the duration of the first after-discharge.
ADT, ADD, and severity scores were analyzed by ANOVA. Seizure severity data was also analyzed by the nonparametric Skillings-Mack test, a generalization of the Friedman test for one-way repeated measures designs. Posthoc tests when reported were either by Dunnett's method (seizure severity) or using Wilcoxon sign rank tests (ADT and ADD). Valproic acid, used as a positive control was not used in ANOVA calculations.

Series [4] has as its system motor performance on an inverted screen. Description: Rat inverted screen test (motor impairment). The note with it: rats.
From the text: The motor effects of Diazepam and KRM-II-81 were studied on the inverted screen. The inverted screen test is used to measure whether or not a test compound induces muscle relaxation. When a test subject is placed on a wire screen which is then inverted, the reaction is to climb to the opposite side so they are no longer hanging upside down.
Male, Sprague Dawley rats (Harlan Sprague Dawley, Indianapolis, Ind.) were used and weighed 90-110 g when evaluated in experiments. […] Rats were placed onto the top of a wire screen, which was then inverted so that the rats were hanging upside down.
Male Sprague-Dawley rats (n=5) were dosed i.p. (vehicle=1% carboxymethyl cellulose) with diazepam (3, 10, or 30 mg/kg), KRM-II-81 (10, 30, or 60 mg/kg) or HZ-166 (30 mg/kg) 30 minutes prior to testing. Rats were placed onto the top of a wire screen, which was then inverted so that the rats were hanging upside down. […] Results were analyzed using ANOVA (Dunnett's test: *P<0.05).
as §1

Setting [5] is: MED producing maximal protection (0% seizures).

For `CCOC(=O)c1ncn2c1CN(C)C(=O)c1cc(F)ccc1-2` [Flumazenil, flumazenil], the “effect on antinociceptive effects of KRM-II-81” value in series [1] (flumazenil pre-treatment before cumulative doses of KRM-II-81, CFA rats) is given as “dose-dependently attenuated”.
For the compound `CC(C)(C)OC(=O)c1cc2c(cn1)[nH]c1ccccc12` [BCCt, β-carboline-3-carboxylate-t-butyl ester], in series [1] (midazolam 5.6 mg/kg after 7 days of repeated midazolam with BCCt (3.2 mg/kg) pretreatment twice a day), the “percent maximal possible effect (MPE) of midazolam” value is given as 92 % MPE.
Consider `CCCOc1cc2c(cn1)[nH]c1ccccc12.Cl` [3-PBC.HCl], for which, in series [1] (midazolam 5.6 mg/kg after 7 days of repeated midazolam with 3PBC.HCl (5.6 mg/kg) pretreatment twice a day), the “percent maximal possible effect of midazolam” value came to 52 % MMPE.
In the case of `Cc1ncc2n1-c1ccc(Cl)cc1C(c1ccccc1F)=NC2` [midazolam], the “percent maximal possible effect (MPE) of midazolam” value in series [1] (midazolam 5.6 mg/kg after 7 days of repeated midazolam with saline pretreatment) is reported as 17 % MPE. In series [1] (midazolam 5.6 mg/kg i.p., Day 0, prior to repeated treatment, CFA rats), the “percent maximal possible effect (MPE), attenuation of mechanical hyperalgesia” value is 100 % MPE.
As to `C#Cc1ccc2c(c1)C(c1ccccn1)=NCc1c(C(=O)OCC)ncn1-2` [HZ-166, ethyl 8-ethynyl-6-(pyridin-2-yl)-4H-benzo[f]imidazo[1,5-a][1,4]diazepine-3-carboxylate, reference compound], in series [2] (setting [5]), the “Electroshock to Criteria” value is more than 30 mg/kg. The “Electroshock (minimal effective dose, MED)” value in series [2] (lowest dose with statistically significant protection vs vehicle) stood at 30 mg/kg. In series [2], the “protection against electroshock-induced seizures” value is listed as “not efficacious up to 30 mg/kg”. Also, the “PTZ Clonus to Criteria 1” value with PTZ-induced clonus (setting [5]) is given as more than 30 mg/kg. The “PTZ Clonus Potency (MED)” value with PTZ-induced clonus (lowest dose with statistically significant protection, PTZ 35 mg/kg s.c.) was more than 30 mg/kg. Moreover, in the series with PTZ-induced clonus (PTZ 35 mg/kg s.c.), the “protection against PTZ-induced clonus” value is listed as “did not significantly separate from vehicle up to 30 mg/kg”. Also, the “PTZ Threshold to Criteria” value in the series with PTZ seizure threshold (MED for producing ≥2× PTZ seizure threshold at baseline) is more than 60 mg/kg. Also, in the series with PTZ seizure threshold (lowest dose with statistically significant effect, rats, PTZ i.v.), the “PTZ Threshold Poteny (MED)” value is recorded as more than 60 mg/kg. Also, in the series on PTZ seizure threshold (rats, PTZ i.v. infusion, pretreatment 30 min), the “effect on dose of PTZ required to induce convulsions” value was “not active and displayed little protection up to 60 mg/kg”. Also, the “After-Discharge Duration to Criteria” value in series [3] (MED for producing after-discharge duration ≤30 sec) is given as more than 60 mg/kg. Besides, the “After-Discharge Threshold to Criteria” value in series [3] (MED for producing after-discharge threshold ≥3) is given as more than 60 mg/kg. Further, in series [3] (MED for producing seizure severity score ≤2), the “Seizure Severity to Criteria” value is on record as more than 60 mg/kg. For the same compound, in series [3] (amygdala kindled rats), the “After-Discharge Duration Potency (MED)” value was more than 60 mg/kg, the “After-Discharge Threshold Potency (MED)” value was more than 60 mg/kg and the “Seizure Severity Poteny (MED)” value is more than 60 mg/kg. Also, the “Seizure free scores (seizure severity=0)” value in series [3] (amygdala kindled rats, groups of 8) was 0/8. Also, the “muscle relaxation on inverted screen (result in words)” value in series [4] (i.p., 30 min prior, KRM-II-81 10-60 mg/kg, HZ-166 30 mg/kg) was “Neither HZ-166 nor KRM-II-81 induced significant muscle relaxation”. The “dose at which signs of muscle relaxation began to appear” value in series [4] (i.p., inverted screen) is listed as 30 mg/kg.
`CCCC(CCC)C(=O)O` [valproate, Valproic acid, reference compound]: the “motor impairment on inverted screen” value in series [4] (300 mg/kg, positive control) was “full motor impairment”.

Values taken from patent publication US20200316087A1, “NOVEL COMBINATION THERAPY FOR ANXIETY DISORDERS, EPILEPSY, AND PAIN” (priority 2017, published 2020).
